Laboratory results published in the supplement of paper PMC10883282.
Structures can show the parent of a compound that is named as a salt. ± gives the standard deviation of the averaged measurements.

Test system: SW982
Assay: relative viability vs DMSO control (72 h) (fraction); higher = more viable cells
Outline: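 Relative viability is percent growth read by ATPLite and averaged over up to triplicate wells. Sarcoma cells were seeded in 384-well plates to reach 80–90% confluence and given 2.5 µl of serially diluted compound after 24 h, from source plates of 10 mM to 0.0002 mM. Incubation lasted 72 h at 37 °C, 5% CO2, with 0.1% DMSO vehicle and a 5 µM positive control, and the data were rescaled so 1 equals full and 0 equals none.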

Row | SMILES | relative viability (0.00017 µM) | relative viability (0.00051 µM) | relative viability (0.00152 µM) | relative viability (0.00457 µM) | relative viability (0.01372 µM) | relative viability (0.04115 µM) | relative viability (0.1235 µM) | relative viability (0.3704 µM) | relative viability (1.111 µM) | relative viability (3.333 µM) | relative viability (10 µM) | relative viability (2 pM) | relative viability (5 pM) | relative viability (15 pM) | relative viability (50 pM) | relative viability (0.00014 µM) | relative viability (0.00041 µM) | relative viability (0.0012 µM) | relative viability (0.0037 µM) | relative viability (0.011 µM) | relative viability (200 fM) | relative viability (600 fM)
1 | CCCS(=O)(=O)Nc1ccc(F)c(C(=O)c2c[nH]c3ncc(-c4ccc(Cl)cc4)cc23)c1F [Vemurafenib] | 1.04 ± 0.063 | 1.08 ± 0.048 | 1.05 ± 0.027 | 1.03 ± 0.029 | 1.06 ± 0.053 | 1.02 ± 0.045 | 0.9867 ± 0.0019 | 0.988 ± 0.039 | 1.01 ± 0.029 | 0.794 ± 0.035 | 0.532 ± 0.02 |  |  |  |  |  |  |  |  |  |  | 
2 | COCc1c(-c2cc3cc(C)cc(OC)c3s2)c2c(N)ncnn2c1CN1CCNC(=O)C1 [Rogaratinib] | 1.05 ± 0.019 | 1.06 ± 0.028 | 1.07 ± 0.058 | 1.06 ± 0.012 | 1.06 ± 0.027 | 1.07 ± 0.028 | 1.06 ± 0.065 | 1.06 ± 0.044 | 0.996 ± 0.024 | 0.728 ± 0.023 | 0.362 ± 0.0075 |  |  |  |  |  |  |  |  |  |  | 
3 | C=CC(=O)N1CCC([C@@H]2CCNc3c(C(N)=O)c(-c4ccc(Oc5ccccc5)cc4)nn32)CC1 [Zanubrutinib] | 0.96 ± 0.026 | 0.968 ± 0.017 | 0.944 ± 0.03 | 0.958 ± 0.013 | 0.949 ± 0.027 | 0.96 ± 0.017 | 0.909 ± 0.019 | 0.893 ± 0.052 | 0.827 ± 0.025 | 0.771 ± 0.04 | 0.731 ± 0.045 |  |  |  |  |  |  |  |  |  |  | 
4 | COc1cccc2c1C(=O)c1c(O)c3c(c(O)c1C2=O)C[C@@](O)(C(=O)CO)C[C@@H]3O[C@H]1C[C@H](N)[C@H](O)[C@H](C)O1 [Doxorubicin Hydrochloride] | 1.05 ± 0.0095 | 1.05 ± 0.057 | 1.07 ± 0.025 | 1.04 ± 0.035 | 0.796 ± 0.022 | 0.457 ± 0.025 | 0.326 ± 0.019 | 0.1607 ± 0.0012 | 0.127 ± 0.0062 | 0.165 ± 0.005 | 0.139 ± 0.0092 |  |  |  |  |  |  |  |  |  |  | 
5 | CC(C)NC(=O)C1CCC(n2c(NC(=O)c3ccc(F)cc3)nc3ccc(CN4CCC(C(C)(C)O)CC4)cc32)CC1 (stereo not drawn) [Belizatinib] | 1.09 ± 0.024 | 1.06 ± 0.023 | 1.05 ± 0.037 | 1.06 ± 0.03 | 1.06 ± 0.02 | 1.03 ± 0.054 | 0.974 ± 0.048 | 0.766 ± 0.045 | 0.383 ± 0.035 | 0.173 ± 0.011 | 0.0273 ± 0.0064 |  |  |  |  |  |  |  |  |  |  | 
6 | COc1cc2/c(=N/c3ccc(Br)cc3F)nc[nH]c2cc1OCC1CCN(C)CC1 [Vandetanib] | 0.997 ± 0.044 | 1 ± 0.035 | 0.977 ± 0.021 | 1.01 ± 0.033 | 1.01 ± 0.078 | 1.03 ± 0.041 | 0.983 ± 0.075 | 0.873 ± 0.077 | 0.699 ± 0.084 | 0.291 ± 0.032 | 0.0207 ± 0.0067 |  |  |  |  |  |  |  |  |  |  | 
7 | C[C@@H]1CCN(C(=O)CC#N)C[C@@H]1N(C)c1ncnc2[nH]ccc12 [Tofacitinib] | 1.01 ± 0.036 | 1.05 ± 0.03 | 1.04 ± 0.03 | 1.03 ± 0.031 | 1.07 ± 0.037 | 1.03 ± 0.05 | 1.05 ± 0.05 | 1.06 ± 0.035 | 1.05 ± 0.042 | 1.04 ± 0.034 | 0.93 ± 0.081 |  |  |  |  |  |  |  |  |  |  | 
8 | Cn1cnc2c(F)c(Nc3ccc(Br)cc3F)c(C(=O)NOCCO)cc21 [Binimetinib] | 0.974 ± 0.046 | 1.04 ± 0.019 | 1.07 ± 0.018 | 0.981 ± 0.056 | 0.99 ± 0.05 | 0.92 ± 0.058 | 0.833 ± 0.043 | 0.831 ± 0.051 | 0.809 ± 0.038 | 0.786 ± 0.035 | 0.765 ± 0.042 |  |  |  |  |  |  |  |  |  |  | 
9 | Cc1nc(-c2cn3c(n2)-c2ccc(-c4cnn(C(C)(C)C(N)=O)c4)cc2OCC3)n(C(C)C)n1 [Taselisib] | 1.03 ± 0.045 | 1.04 ± 0.023 | 1.02 ± 0.043 | 1.02 ± 0.02 | 1.02 ± 0.034 | 0.968 ± 0.02 | 0.898 ± 0.026 | 0.7957 ± 0.0075 | 0.633 ± 0.035 | 0.506 ± 0.016 | 0.339 ± 0.02 |  |  |  |  |  |  |  |  |  |  | 
10 | Nc1cc(C(F)(F)F)c(-c2cc(N3CCOCC3)nc(N3CCOCC3)n2)cn1 [Buparlisib] | 1 ± 0.025 | 1 ± 0.033 | 1.04 ± 0.031 | 1.03 ± 0.049 | 1.04 ± 0.011 | 1.02 ± 0.041 | 0.983 ± 0.035 | 0.86 ± 0.02 | 0.405 ± 0.033 | 0.146 ± 0.0066 | 0.0979 ± 0.0037 |  |  |  |  |  |  |  |  |  |  | 
11 | Cc1cnc(Nc2ccc(OCCN3CCCC3)cc2)nc1Nc1cccc(S(=O)(=O)NC(C)(C)C)c1 [Fedratinib] | 1.03 ± 0.012 | 1.03 ± 0.033 | 1.07 ± 0.021 | 1.07 ± 0.016 | 1.088 ± 0.0018 | 1.06 ± 0.024 | 0.846 ± 0.052 | 0.394 ± 0.013 | 0.161 ± 0.0068 | 0.0074 ± 0.0013 | 0.00487 ± 0.00038 |  |  |  |  |  |  |  |  |  |  | 
12 | COc1cc2c(Oc3ccc4[nH]c(C)cc4c3F)ncnc2cc1OCCCN1CCCC1 [Cediranib] | 1.04 ± 0.034 | 1.058 ± 0.007 | 1.06 ± 0.044 | 1.06 ± 0.027 | 1.06 ± 0.031 | 1.04 ± 0.013 | 1.06 ± 0.029 | 0.967 ± 0.07 | 0.914 ± 0.077 | 0.959 ± 0.012 | 0.961 ± 0.01 |  |  |  |  |  |  |  |  |  |  | 
13 | CC(=O)Nc1cccc(-n2c(=O)n(C3CC3)c(=O)c3c(Nc4ccc(I)cc4F)n(C)c(=O)c(C)c32)c1 [Trametinib] | 0.993 ± 0.045 | 0.988 ± 0.044 | 0.981 ± 0.028 | 0.938 ± 0.051 | 0.893 ± 0.095 | 0.866 ± 0.07 | 0.847 ± 0.084 | 0.848 ± 0.038 | 0.858 ± 0.049 | 0.838 ± 0.049 | 0.799 ± 0.027 |  |  |  |  |  |  |  |  |  |  | 
14 | CC(C)N1CCN(Cc2cnc(-c3cc(-c4cccc5[nH]ccc45)cc4[nH]ncc34)o2)CC1 [Nemiralisib] | 0.946 ± 0.032 | 0.961 ± 0.044 | 0.918 ± 0.042 | 0.923 ± 0.038 | 0.954 ± 0.012 | 0.93 ± 0.061 | 0.916 ± 0.033 | 0.89 ± 0.056 | 0.805 ± 0.039 | 0.654 ± 0.032 | 0.275 ± 0.014 |  |  |  |  |  |  |  |  |  |  | 
15 | Cc1cc(Nc2ncnc3ccc(NC4=NC(C)(C)CO4)cc23)ccc1Oc1ccn2ncnc2c1 [Tucatinib] | 1.05 ± 0.062 | 1.11 ± 0.02 | 1.1 ± 0.022 | 1.09 ± 0.031 | 1.078 ± 0.0072 | 1.088 ± 0.0077 | 1.08 ± 0.035 | 1.059 ± 0.01 | 1.08 ± 0.046 | 1.1 ± 0.044 | 1.06 ± 0.026 |  |  |  |  |  |  |  |  |  |  | 
16 | COc1cc2c(cc1O)CCN[C@]21CS[C@@H]2c3c(OC(C)=O)c(C)c4c(c3[C@H](COC1=O)N1[C@@H]2[C@H]2c3c(cc(C)c(OC)c3O)C[C@@H]([C@@H]1O)N2C)OCO4 [Trabectedin] |  |  |  |  |  |  |  |  |  |  |  | 0.929 ± 0.036 | 0.86 ± 0.035 | 0.765 ± 0.031 | 0.639 ± 0.034 | 0.385 ± 0.021 | 0.266 ± 0.0099 | 0.194 ± 0.0051 | 0.186 ± 0.0075 | 0.1406 ± 0.00098 | 0.987 ± 0.031 | 0.9423 ± 0.004
17 | C[C@@H]1COCCN1c1cc(-c2ccnn2C)c2ccnc(-c3ccn[nH]3)c2n1 | 1.04 ± 0.031 | 1.05 ± 0.052 | 1.05 ± 0.056 | 1.04 ± 0.015 | 0.989 ± 0.028 | 0.685 ± 0.039 | 0.499 ± 0.009 | 0.322 ± 0.011 | 0.1893 ± 0.0012 | 0.149 ± 0.002 | 0.142 ± 0.0075 |  |  |  |  |  |  |  |  |  |  | 
18 | Cc1cc(C)c(/C=C2\C(=O)Nc3ccccc32)[nH]1 [Semaxanib] | 1.02 ± 0.03 | 1.02 ± 0.031 | 0.997 ± 0.022 | 0.9929 ± 0.0051 | 0.968 ± 0.011 | 0.96 ± 0.029 | 0.947 ± 0.03 | 0.933 ± 0.011 | 0.904 ± 0.02 | 0.879 ± 0.028 | 0.821 ± 0.041 |  |  |  |  |  |  |  |  |  |  | 
